Tests used:
RNA as a template = conditions: cited from earlier work
Bgl II-cut pPK5 = test: Run-off transcription with 2′-OMe- or 2′-azido-NTPs on Bgl II-cut pPK5; format: biochemical
Procedure: (§1) RNAPs were prepared as described (Brieba, L G, and Sousa, R. Biochemistry, 39: 919-923, 2000). Transcription reactions were carried out for 30 min. at room temperature in 40 mM Tris-Cl, pH 8.0, 6 mM MgCl2, 10 mM NaCl, 2 mM spermidine, with templates at 10^−7 M and RNAPs at 2×10^−7 M. All NTPs were used at 0.5 mM, and transcripts were labeled by inclusion of 1% v/v 800 Ci/mM […] in the reaction. Modified NTPs were from Trilink Biotechnologies. Reactions were stopped by addition of an equal volume of 90% formamide, 50 mM EDTA, 0.01% xylene cyanol, resolved by electrophoresis in 20% acrylamide, 1% bis-acrylamide, 1×TBE gels, and visualized on a Molecular Dynamics Phosphorimager.
The ability of the wild-type, Y639F and Y639F/H784A mutants to utilize 2′-OMe-UTP and 2′-OMe-CTP, and 2′-azido-UTP and 2′-azido-CTP in RNA synthesis was tested. On a Bgl II-cut pPK5 (Mentesanas, P. E., et al., “Characterization of Bacteriophage T7 RNA Polymerase Elongation Complexes,” J. Mol. Biol. 302:1049-1062, 2000) template in which CTP and UTP are first incorporated at +14 and +15, respectively, the wild-type enzyme can synthesize 34 nucleotide (nt) run-off transcripts in reactions in which UTP is replaced with 2′-OMe-UTP (FIG. 2a, lane 2) or in reactions in which CTP is replaced with 2′-OMe-CTP (FIG. 2a, lane 3). Relative to the reaction with 4 NTPs (FIG. 2a, lane 1), yields of run-off transcripts are reduced 6-fold and 21-fold in the 2′-OMe-UTP and 2′-OMe-CTP reactions, respectively. When both UTP and CTP are replaced with the corresponding 2′-OMe-NTPs, run-off transcription with the wild-type enzyme is undetectable (FIG. 2a, lane 4). Terminated transcripts are seen in these reactions at positions where 2′-OMe-UMP or 2′-OMe-CMP are incorporated (FIG. 2a, lanes 2-4). The Y639F mutation enhances utilization of the 2′-OMe-NTPs: relative to reactions with 4 NTPs (FIG. 2a, lane 5) runoff transcription with Y639F is reduced, respectively: 2-fold, 8-fold, and 55-fold in reactions with 2′-OMe-UTP, 2′-OMe-CTP, or both (FIG. 2a, lanes 6-8). With the Y639F/H784A double mutant the reduction in run-off transcript synthesis is <15% in reactions with 2′-OMe-UTP (FIG. 2a, lane 10), and only 3-fold and 6-fold in reactions with, respectively, 2′-OMe-CTP or both 2′-OMe-UTP and 2′-OMe-CTP (FIG. 2a, lanes 11, 12).
Identical experiments were carried out with 2′-azido-UTP or 2′-azido-CTP replacing UTP or CTP, respectively (FIG. 2b). With the wild-type enzyme, run-off transcription was reduced 15- and 50-fold in reactions with 2′-azido-UTP or 2′-azido-CTP, respectively (FIG. 2b; lanes 2, 3), and was undetectable in reactions with both 2′-azido-UTP and 2′-azido-CTP (FIG. 2b; lane 4). With Y639F, use of 2′-azido-UTP or 2′-azido-CTP reduced run-off transcription by 70% (FIG. 2b; lanes 6, 7) compared to reactions with 4 NTPs (FIG. 2b; lane 5), while use of both 2′-azido-UTP and 2′-azido-CTP reduced runoff transcription by 11-fold (FIG. 2b, lane 8). With Y639F/H784A use of a single azido-modified NTP reduced run-off transcription by only 40% (FIG. 2b; lanes 10, 11), while use of two 2′-azido-NTPs reduced it by 3-fold (FIG. 2b; lane 12).

HindIII-cut pT75 = test: Run-off transcription with 2′-OMe- or 2′-azido-NTPs on HindIII-cut pT75; format: biochemical
Procedure: as §1
With the pPK5 template, UMP and CMP are not incorporated into the first 9 nt of RNA. Incorporation of non-canonical NMPs during synthesis of the first 9 nt of RNA is expected to cause greater reductions in run-off transcript synthesis because the RNA is readily released from the transcription complex during this initial phase of transcription. Therefore, if incorporation of a non-canonical NMP is slow, the RNA will usually dissociate before the NMP is incorporated. […] To see whether NMPs with bulky 2′-substituents could be incorporated during the initial phase of transcription a Hind-III linearized pT75 (Tabor, S. and Richardson, C. C., “A bacteriophage T7 RNA polymerase/promoter system for controlled exclusive expression of specific genes,” Proc. Natl. Acad. Sci. USA 82:1074-1078, 1985) was used. On this template, UMP is first incorporated at +14 while CMP is incorporated at +6 and +7. In reactions with 2′-OMe-UTP run-off transcript synthesis is reduced 11-fold, 5-fold, and <2-fold with the wild-type, and the Y639F, and Y639F/H784A mutants, respectively (FIG. 2c; lanes 2, 6, 10). However, in reactions with 2′-OMe-CTP run-off transcription is undetectable with the wild-type or Y639F enzymes (FIG. 2c; lanes 3, 4, 7, 8), and is reduced ˜700-fold with Y639F/H784A (FIG. 2c; lanes 11, 12).
Run-off transcript yields in reactions with HindIII-cut pT75 and 2′-azido-UTP are reduced 18-, 8.5-, and <2-fold with wild-type and Y639F and Y639F/H784 mutants, respectively (FIG. 2d; lanes 2, 6, 10), relative to reactions with 4 NTPs (FIG. 2d; lanes 1, 5, 9). In reactions with 2′-azido-CTP, or both 2′-azido-CTP and 2′-azido-UTP, run-off transcription is undetectable with the wild-type enzyme (FIG. 2d; lanes 3, 4), is reduced 65-fold with Y639F (FIG. 2d; lanes 7, 8), but is reduced only 7-fold with Y639F/H784A (FIG. 2d; lanes 11, 12).

T7 Control Template = test: Incorporation of Cy5-UTP or Cy5-dCTP into transcripts (A650/A260); format: biochemical; conditions: FluoroLink Cy5-UTP or Cy5-dCTP in addition to UTP or CTP
Procedure: In separate experiments to evaluate the ability of the Y639F/H784A double mutant versus the Y639F single mutant of T7 RNAP to incorporate nucleoside triphosphates with substituents at other positions than the 2′-position of the sugar, in vitro transcription reactions are carried out with each mutant enzyme using a T7 Control Template from an AmpliScribe™ T7 High Yield Transcription Kit (EPICENTRE) and either FluoroLink™ Cy5-UTP or FluoroLink™ Cy5-dCTP (both from Amersham Biosciences) in the reaction mixture in addition to the corresponding canonical nucleotide, UTP or CTP. Following transcription, the product is precipitated with ammonium acetate and the relative amount of Cy5 dye in the transcripts are determined based on the A650/A260 absorption ratios.

[1] = even in Mn^2+ buffer; cited from earlier work

Molecule: E. coli DNA-directed DNA polymerase I: E. coli DNA polymerase I
- Increase in dNTP Km (RNA as a template): ~100 fold

Molecule: Y639F/H784A: Y639F/H784A double mutant of T7 RNAP
- Reduction of run-off transcript yield relative to 4 NTPs (Bgl II-cut pPK5; 2′-OMe-CTP replacing CTP): 3 fold
- Reduction in run-off transcript synthesis (Bgl II-cut pPK5; 2′-OMe-UTP replacing UTP): < 15%
- Reduction of run-off transcript yield relative to 4 NTPs (Bgl II-cut pPK5; both 2′-OMe-UTP and 2′-OMe-CTP): 6 fold
- Reduction of run-off transcription (Bgl II-cut pPK5; both 2′-azido-UTP and 2′-azido-CTP): 3 fold
- Reduction of run-off transcription (Bgl II-cut pPK5; single azido-modified NTP (2′-azido-UTP or 2′-azido-CTP)): 40%
- Reduction of run-off transcription (HindIII-cut pT75; 2′-OMe-CTP): ~700 fold
- Reduction of run-off transcript synthesis (HindIII-cut pT75; 2′-OMe-UTP): < 2 fold
- Reduction of run-off transcription (HindIII-cut pT75; 2′-azido-CTP, or both 2′-azido-CTP and 2′-azido-UTP): 7 fold
- Reduction of run-off transcript yields relative to 4 NTPs (HindIII-cut pT75; 2′-azido-UTP): < 2 fold
- A650/A260 absorption ratio of transcription products compared to Y639F single mutant (T7 Control Template): significantly higher

B1: T7 DNAP: T7 DNA polymerase (protein, UniProt P00581 1-704, looked up)
DNA-directed DNA polymerase: MIVSDIEANALLESVTKFHCGVIYDYSTAEYVSYRPSDFGAYLDALEAEVARGGLIVFHNGHKYDVPALTKLAKLQLNREFHLPRENCIDTLVLSRLIHSNLKDTDMGLLRSGKLPGKRFGSHALEAWGYRLGEMKGEYKDDFKRMLEEQGEEYVDGMEWWNFNEEMMDYNVQDVVVTKALLEKLLSDKHYFPPEIDFTDVGYTTFWSESLEAVDIEHRAAWLLAKQERNGFPFDTKAIEELYVELAARRSELLRKLTETFGSWYQPKGGTEMFCHPRTGKPLPKYPRIKTPKVGGIFKKPKNKAQREGREPCELDTREYVAGAPYTPVEHVVFNPSSRDHIQKKLQEAGWVPTKYTDKGAPVVDDEVLEGVRVDDPEKQAAIDLIKEYLMIQKRIGQSAEGDKAWLRYVAEDGKIHGSVNPNGAVTGRATHAFPNLAQIPGVRSPYGEQCRAAFGAEHHLDGITGKPWVQAGIDASGLELRCLAHFMARFDNGEYAHEILNGDIHTKNQIAAELPTRDNAKTFIYGFLYGAGDEKIGQIVGAGKERGKELKKKFLENTPAIAALRESIQQTLVESSQWVAGEQQVKWKRRWIKGLDGRKVHVRSPHAALNTLLQSAGALICKLWIIKTEEMLVEKGLKHGWDGDFAYMAWVHDEIQVGCRTEEIAQVVIETAQEAMRWVGDHWNFRCLLDTEGKMGPNWAICH
- Selectivity for dNTPs over rNTPs [1]: at least 2,000 fold
